We go through 1 molecule from publication PMC8745345, “Hydroxy Pentacyclic Triterpene Acid, Kaempferol, Inhibits the Human 5-Hydroxytryptamine Type 3A Receptor Activity” (International Journal of Molecular Sciences, 2022).

Experiment [1] addresses T1, human 5-HT3A receptor F199A mutant (Homo sapiens, UniProt P46098, F221A).
T1 sequence (P46098 24-478 F221A): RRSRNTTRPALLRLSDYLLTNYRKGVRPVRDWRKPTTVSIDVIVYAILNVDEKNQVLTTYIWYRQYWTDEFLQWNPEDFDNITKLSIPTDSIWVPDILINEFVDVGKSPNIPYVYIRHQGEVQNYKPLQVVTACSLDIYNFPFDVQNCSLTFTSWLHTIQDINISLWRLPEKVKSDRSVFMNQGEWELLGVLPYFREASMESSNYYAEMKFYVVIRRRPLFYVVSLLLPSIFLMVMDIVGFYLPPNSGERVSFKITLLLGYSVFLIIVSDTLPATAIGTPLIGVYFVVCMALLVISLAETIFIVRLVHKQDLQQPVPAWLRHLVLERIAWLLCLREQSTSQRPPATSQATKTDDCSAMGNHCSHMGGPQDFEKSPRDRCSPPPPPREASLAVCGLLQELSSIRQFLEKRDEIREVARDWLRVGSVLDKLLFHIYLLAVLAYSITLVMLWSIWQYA
In words: Two-electrode voltage clamp, I5-HT inhibition, F199A mutant. The class given is cell-based. As to conditions: −80 mV.
Procedure: Xenopus oocytes were used in this study as cells for expression of human 5-HT3A receptor. All female frogs used in this experiment were obtained from the Korean Xenopus Resource Center for Research (KXRCR000001). […] Isolated oocytes were incubated with ND96 incubation buffer (96 mM NaCl, 2 mM KCl, 1 mM MgCl2, 1.8 mM CaCl2, 5 mM HEPES, 2.5 mM sodium pyruvate, and 50 mg/mL gentamycin, pH 7.4) at 18 °C until the experiment was performed. Human 5-HT3A receptor mRNA was injected into oocytes using a nanoinjector (Drummond Scientific, Broomall, PA, USA) with a mineral-filled 10 μL microdispenser (VWR, Piscataway, NJ, USA).
For the experiment, induced-inward current was converted to digital data with pClamp 10 software (Axon Instruments, Union City, CA, USA). All experiments were performed at room temperature using an oocyte clamp equipped with Digidata. The membrane holding potential was −80 mV.
The voltage relationship experiment for confirming the relationship between induce-inward current and voltage, the voltage was varied from −80 mV to +60 mV using a ramp protocol. Each microelectrode was filled with 3 M KCl having a resistance of 0.2 MΩ. […] The rate of application of the reagent was 2 mL per minute. All recording data were analyzed using Clampfit 9.0 (Molecular Devices, San Jose, CA, USA).
Point mutation was performed using Pfu DNA polymerase (Quikchange II Site-Directed Mutagenesis Kit). Chimeric primer design for PCR was performed under appropriate primer design guidelines. […]

Experiment [2] addresses T2, human 5-HT3A receptor I144A mutant (Homo sapiens, UniProt P46098).
T2 sequence (P46098 24-478): T1 sequence (P46098 24-478 F221A) with A198F
In words: Two-electrode voltage clamp, I5-HT inhibition, I144A mutant. The format is cell-based. As to conditions: −80 mV. On the procedure:
Human 5-HT3A receptor cDNA was linearized using restriction enzyme XhoI. In vitro transcription was performed using an mMESSAGE mMACHINE T7 Transcription Kit (Thermo Fisher Scientific, Waltham, MA, USA). The final mRNA product was dissolved in 1X Diethyl Pyrocarbonate (RNase-free water) at a final concentration of 1 μg/μL and kept in a deep-freezer at −80 °C until used.
Xenopus oocytes were used in this study as cells for expression of human 5-HT3A receptor. All female frogs used in this experiment were obtained from the Korean Xenopus Resource Center for Research (KXRCR000001). Xenopus management followed the guideline of Chonnam National University institution guidelines (CNU IACUC-YB-2016-07, July 2016). Xenopus oocytes were extracted during ice incubation state and isolated as single oocytes using collagenase II (2 mg/mL) in OR2 buffer (82.5 mM NaCl, 2 mM KCl, 1 mM MgCl2, 5 mM HEPES, pH 7.4). […]
The voltage relationship experiment for confirming the relationship between induce-inward current and voltage, the voltage was varied from −80 mV to +60 mV using a ramp protocol. […] All recording data were analyzed using Clampfit 9.0 (Molecular Devices, San Jose, CA, USA). […]
All presented experiments were performed at least three times for scientific verification. […] Induced-inward current data were analyzed with SigmaPlot 10.0 software (Systat Software, Inc., San Jose, CA, USA). […]
In general terms: Two-electrode voltage clamp holds a large cell at a set potential and records current.

Positions count from the first letter of the chain named.

On to `O=c1c(O)c(-c2ccc(O)cc2)oc2cc(O)cc(O)c12` [KAE, kaempferol], for which the “n (Hill coefficient)” value in experiment [1] is on record as 1.4 ± 0.4. Besides, in experiment [1] (Table 1), half-maximal inhibition (IC50) was put at 21.5 ± 5.7 µM and the Vmax was found to be 53.3 ± 10.4%. Moreover, in experiment [2], the IC50 (in general, the point on the concentration scale where inhibition reaches its midpoint) was 34.9 ± 11.2 µM and the “n (Hill coefficient)” value is listed as 1.5 ± 0.4.
